Data set [1] relates to rat primary cortical neuron cultures. The data set is described as follows: NMDA excitotoxicity, viability by MTT assay. It counts as cell-based. The conditions noted are these: then NMDA 500 μM for 5 minutes. The procedure:
(§1) Cells were then exposed to excitotoxic NMDA (500 μM for 5 minutes) and viability was assessed using MTT assay after 24 hours. […] Rat cortical neurons (DIV 9) were treated with NMDA (50 μM for 5 minutes) and then with cis-RSV for 24 hours. Cells were then exposed to excitotoxic NMDA (500 μM for 5 minutes) and viability was assessed using MTT assay after 24 hours. […] Cell viability was assessed after 48 hours. […] Representative images (scale bar, 20 μm) for cortical neurons following neurite degeneration (MAP2—neurite marker, magenta and DAPI—nuclear marker, blue). […] Neurons were immunoassayed with anti-MAP2 antibody and quantified for neurite degeneration. The data represents mean±SEM for n=3 experiments with significance measured using Student's paired t-test.
Primary cortical neuron cultures were obtained from E18 Sprague Dawley rats' cortices, which were dissected in Hibernate E (BrainBits) and dissociated using the Neural Tissue Dissociation kit (Miltenyi Biotec). For this, minced cortices were incubated in a pre-warmed enzyme mix at 37° C. for 15 min; tissues were then triturated and strained using a 40 μm cell strainer. After washing and centrifugation, neurons were seeded in 50 μg/ml poly-D-Lysine (Sigma Aldrich) coated tissue culture plates. NBActive-1 medium (BrainBits) supplemented with 100 U/ml of Penicillin-Streptomycin (Life Technologies), 2 mM L-Glutamine (Life Technologies), and 1 X N21 supplement (R&D Systems) was used as culture medium. Control (AM4635), TyrRS (s443), PARP1 (s130207) siRNA for transfection were obtained from Invitrogen. […]
Rat cortical neurons (DIV 10-11) were exposed to different treatments after seeding 20,000 cells/well in 96-well plates. Cell viability was then assessed at 48 hours after the initial exposure to NMDA. […] The percentage of MTT reduced as measured by the difference between the absorbances at 570 nm read in a spectrophotometer (Spectramax 190R Molecular Devices, UK). The percentage of reduction of MTT was calculated comparing the difference of the absorbance at 570 of each sample. […]
Background: Tetrazolium assays rely on reduction of a dye to a coloured formazan, in cell work by metabolically active cells.

The test system of a further data set is Cortical neurons. The data set can be described thus: Aβ-induced neurite degeneration (MAP2 immunostaining). The format is cell-based, rat. The conditions noted are these: for Aβ-induced neurotoxicity (neurite degeneration): pre-treated 50 μM 16 hours, then Aβ 50 nM 24 hours. The procedure:
as §1
Amyloid Beta oligomers were prepared as described previously, see Ahmed, M. et al. Structural conversion of neurotoxic amyloid-beta (1-42) oligomers to fibrils. Nat Struct Mol Biol 17, 561-567, doi:10.1038/nsmb.1799 (2010) and Wang, X. et al. Elevated Neuronal Excitability Due to Modulation of the Voltage-Gated Sodium Channel Nav1.6 by A beta (1-42). Front Neurosci-Switz 10, doi:ARTN 94 10.3389/fnins.2016.00094 (2016). […]
Neurite degeneration index was calculated as described previously, see Jin, M. et al. Soluble amyloid beta-protein dimers isolated from Alzheimer cortex directly induce Tau hyperphosphorylation and neuritic degeneration. […] The samples to be analyzed for neurite degeneration were stained using the standard immunofluorescence procedure with MAP2 (Alexa fluor 647) for neurites and DAPI staining for the nucleus. Neurite degeneration quantification was done using 5-6 regions of interest of equal sizes from each treatment condition. […] To detect degenerated neurites, we used the particle analyzer module of ImageJ and calculated the percentage of the area of the small fragments or particles (size=3-10 μm^2) to the intact neurites (size>25 μm2) with information derived from the binary images. A degeneration index (DI) was calculated as the fragmented neurite area ratio over intact neurite area. […]

The test system of the next data set is RAD51. The data set can be described thus: Immunoblot for RAD51 levels. The format is cell-based, rat. The conditions noted are these: 4 hours. A general note: In western blotting, separated proteins are transferred to a membrane and probed.
The test system of the next data set is γ-H2AX foci. The data set can be described thus: Immunostaining of DNA damage marker pSer139-H2AX (γ-H2AX) foci. The conditions noted are these: 24 hours; for Aβ-mediated accumulation of γ-H2AX foci: 50 μM in combination with Aβ 50 nM; for γ-H2AX foci: alone, 50 μM. The format is cell-based, rat.
Another data set concerns PARP1. The data set can be described thus: Auto-PARylation of PARP1 after siRNA knockdown of TyrRS. It counts as cell-based, rat. The conditions noted are these: 15 minutes.

Regarding `Oc1ccc(/C=C\c2cc(O)cc(O)c2)cc1` [cis-RSV, cis-resveratrol], the “neuronal survival under NMDA excitotoxicity” value in data set [1] (cis-RSV for 24 hours) was “protected against excitotoxicity in a dose-dependent manner”. Further, the “Aβ-induced neurotoxicity (neurite degeneration)” value in the data set on Cortical neurons was “protected against Aβtoxicity”. For the same compound, in the data set on RAD51 (cis-RSV 5-50 μM), the RAD51 levels result is recorded as “upregulated it”. In the data set on γ-H2AX foci, the “Aβ-mediated accumulation of γ-H2AX foci” value was “rescued A β-mediated accumulation of γ-H2AX foci” and the γ-H2AX foci entry was “downregulated the accumulation of γ-H2AX foci”. In the data set with PARP1 (cis-RSV 25 μM), the “auto-PARylation of PARP1 after knockdown of TyrRS” value was “blunted after knockdown of TyrRS”.
As for `Oc1ccc(/C=C/c2cc(O)cc(O)c2)cc1` [trans-RSV, trans-resveratrol], the “neuronal survival under NMDA excitotoxicity” value in data set [1] (higher dose (≥25 μM), 24 hours) was “exacerbated the N-Methyl-D-aspartate (NMDA)-mediated excitotoxicity”; in data set [1] (low dose (≤10 μM), 24 hours), “evoked neuroprotective effects”. Further, the “neurotoxicity (neurite degeneration) by itself” value in the data set with Cortical neurons (50 μM, without Aβ) is on record as “itself induced neurotoxicity”. In addition, in the data set on Cortical neurons, the “Aβ-induced neurotoxicity (neurite degeneration)” value is given as “exacerbating Aβtoxicity”. Besides, the results for the RAD51 levels result in the data set on RAD51 (low dose 5 μM) and with RAD51 (≥10 μM) were “upregulated it” and “downregulated RAD51 in a dose-dependent manner”, respectively. Further, the “Aβ-mediated accumulation of γ-H2AX foci” value in the data set with γ-H2AX foci is “exacerbated the accumulation of γ-H2AX foci”. In addition, the γ-H2AX foci entry in the data set on γ-H2AX foci was “caused the accumulation of γ-H2AX foci”. Moreover, the “auto-PARylation of PARP1 after knockdown of TyrRS” value in the data set with PARP1 (trans-RSV 5 μM) is on record as “blunted after knockdown of TyrRS”.
